Assay results published in ChEMBL document CHEMBL3046742, “Isolation and anxiolytic activity of 3,4-bis(3,4-dimethoxyphenyl)furan-2,5-dione from the ethanolic extract of heart wood of Cedrus deodara” (2012).
Calls of active or inactive are those of the source. The rule behind the calls is not given here.

How the values were obtained:
Mus musculus [1] = test: Anxiolytic activity in Mus musculus Swiss albino (mouse) assessed as increase in time spent in open arms at 2 mg/kg, po administered 1 hr prior to testing measured for 5 min by plus-maze test (reference value: 23 +/- 1.63 secs); type: functional
Mus musculus [2] = test: Anxiolytic activity in Mus musculus Swiss albino (mouse) assessed as increase in time spent in light zone at 2 mg/kg, po administered 1 hr prior to testing measured for 5 min by light-dark test (reference value: 64 +/- 4.02 secs); type: functional
Mus musculus [3] = test: Anxiolytic activity in Mus musculus Swiss albino (mouse) assessed as increase in ambulation at 2 mg/kg, po administered 45 min prior to testing measured for 5 min by open-field test relative to control; type: functional, organism-based; design: dose 2 mg/kg
Mus musculus [4] = test: Anxiolytic activity in Mus musculus Swiss albino (mouse) assessed as time spent in neutral zone at 2 mg/kg, po administered 1 hr prior to testing measured for 5 min by plus-maze test (reference value: 70 +/- 5.63 secs); type: functional
Mus musculus [5] = test: Anxiolytic activity in Mus musculus Swiss albino (mouse) assessed as increase in time spent in open arms at 10 mg/kg, po administered 1 hr prior to testing measured for 5 min by plus-maze test (reference value: 23 +/- 1.63 secs); type: functional
Mus musculus [6] = test: Anxiolytic activity in Mus musculus Swiss albino (mouse) assessed as decrease in immobility duration at 2 mg/kg, po administered 1 hr prior to testing measured for 5 min by light-dark test relative to control; type: functional, organism-based; design: dose 2 mg/kg
Mus musculus [7] = test: Anxiolytic activity in Mus musculus Swiss albino (mouse) assessed as increase in time spent in light zone at 100 mg/kg, po administered 1 hr prior to testing measured for 5 min by light-dark test (reference value: 64 +/- 4.02 secs); type: functional
Mus musculus [8] = test: Anxiolytic activity in Mus musculus Swiss albino (mouse) assessed as increase in time spent in light zone at 30 mg/kg, po administered 1 hr prior to testing measured for 5 min by light-dark test (reference value: 64 +/- 4.02 secs); type: functional
Mus musculus [9] = test: Anxiolytic activity in Mus musculus Swiss albino (mouse) assessed as increase in ambulation at 200 to 400 mg/kg, po administered 45 min prior to testing measured for 5 min by open-field test relative to control; type: functional, organism-based
Mus musculus [10] = test: Anxiolytic activity in Mus musculus Swiss albino (mouse) assessed as increase in time spent in light zone at 10 mg/kg, po administered 1 hr prior to testing measured for 5 min by light-dark test (reference value: 64 +/- 4.02 secs); type: functional
Mus musculus [11] = test: Anxiolytic activity in Mus musculus Swiss albino (mouse) assessed as increase in ambulation at 100 mg/kg, po administered 45 min prior to testing measured for 5 min by open-field test relative to control; type: functional, organism-based; design: dose 100 mg/kg
Mus musculus [12] = test: Anxiolytic activity in Mus musculus Swiss albino (mouse) assessed as time spent in neutral zone at 100 mg/kg, po administered 1 hr prior to testing measured for 5 min by plus-maze test (reference value: 70 +/- 5.63 secs); type: functional
Mus musculus [13] = test: Anxiolytic activity in Mus musculus Swiss albino (mouse) assessed as time spent in neutral zone at 30 mg/kg, po administered 1 hr prior to testing measured for 5 min by plus-maze test (reference value: 70 +/- 5.63 secs); type: functional
Mus musculus [14] = test: Anxiolytic activity in Mus musculus Swiss albino (mouse) assessed as time spent in neutral zone at 10 mg/kg, po administered 1 hr prior to testing measured for 5 min by plus-maze test (reference value: 70 +/- 5.63 secs); type: functional
Mus musculus [15] = test: Anxiolytic activity in Mus musculus Swiss albino (mouse) assessed as increase in time spent in open arms at 100 mg/kg, po administered 1 hr prior to testing measured for 5 min by plus-maze test (reference value: 23 +/- 1.63 secs); type: functional
Mus musculus [16] = test: Anxiolytic activity in Mus musculus Swiss albino (mouse) assessed as increase in time spent in open arms at 30 mg/kg, po administered 1 hr prior to testing measured for 5 min by plus-maze test (reference value: 23 +/- 1.63 secs); type: functional

CN1C(=O)CN=C(c2ccccc2)c2cc(Cl)ccc21 [DIAZEPAM]
Time (Mus musculus [1]): 166 s
Time (Mus musculus [2]): 171 s
Activity (Mus musculus [3]): Active
Time (Mus musculus [4]): 32 s

COc1ccc(C2=C(c3ccc(OC)c(OC)c3)C(=O)OC2=O)cc1OC
Time (Mus musculus [5]): 66 s
Activity (Mus musculus [6]): Active
Time (Mus musculus [7]): 145 s
Time (Mus musculus [8]): 120 s
Activity (Mus musculus [9]): inactive
Time (Mus musculus [10]): 95 s
Activity (Mus musculus [11]): Active
Time (Mus musculus [12]): 29 s
Time (Mus musculus [13]): 45 s
Time (Mus musculus [14]): 65 s
Time (Mus musculus [15]): 151 s
Time (Mus musculus [16]): 110 s
